Laboratory results taken from the supplement of paper PMC10307832.

Columns and labels:
Assay in all cases: relative viability (nuclei count vs DMSO), 5 days (fraction); higher = more cells survive
[1] = compound: C1=CC=C2C(=C1)N=C(S2)C(C#N)C3=NC(=NC=C3)NCCC4=CN=CC=C4 + CCNC(=O)c1noc(-c2cc(C(C)C)c(O)cc2O)c1-c1ccc(CN2CCOCC2)cc1 [Luminespib] (partner 0.01 µM)
In short: (§1)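 Lung cancer cell lines, seeded in 1536-well plates, were treated the following day by pin tool with a single drug or with five library-drug doses (not always all listed) in √10 steps on top of a fixed anchor-drug dose. Cells were fixed and nuclei stained in one step after 5 days, and nuclei were counted. Relative viability is the nuclei count for treated wells divided by that for vehicle wells, reported as medians of duplicate plates.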

[2] = compound: C1=CC=C2C(=C1)N=C(S2)C(C#N)C3=NC(=NC=C3)NCCC4=CN=CC=C4 + C[C@]1(O)C[C@@H](c2nc(-c3ccc4ccc(-c5ccccc5)nc4c3)c3c(N)nccn32)C1 [Linsitinib] (partner 1 µM)
In short: as §1

NVP-TAE684 + Lapatinib = compound: COc1cc(N2CCC(N3CCN(C)CC3)CC2)ccc1Nc1ncc(Cl)c(Nc2ccccc2S(=O)(=O)C(C)C)n1 [NVP-TAE684] + CS(=O)(=O)CCNCc1ccc(-c2ccc3ncnc(Nc4ccc(OCc5cccc(F)c5)c(Cl)c4)c3c2)o1 [Lapatinib] (partner 2 µM)
In short: as §1

Vandetanib + Phenformin = compound: COc1cc2/c(=N/c3ccc(Br)cc3F)nc[nH]c2cc1OCC1CCN(C)CC1 [Vandetanib] + N=C(N)NC(=N)NCCc1ccccc1 [Phenformin] (partner 250 µM)
In short: as §1

| Cell Line | relative viability ([1]; first compound 0.005 µM) | relative viability ([1]; first compound 0.01581 µM) | relative viability ([1]; first compound 0.05 µM) | relative viability ([1]; first compound 0.1581 µM) | relative viability ([1]; first compound 0.5 µM) | relative viability ([2]; first compound 0.005 µM) | relative viability ([2]; first compound 0.01581 µM) | relative viability ([2]; first compound 0.05 µM) | relative viability ([2]; first compound 0.1581 µM) | relative viability ([2]; first compound 0.5 µM) | relative viability (NVP-TAE684 + Lapatinib; first compound 0.2 µM) | relative viability (NVP-TAE684 + Lapatinib; first compound 0.6325 µM) | relative viability (NVP-TAE684 + Lapatinib; first compound 2 µM) | relative viability (Vandetanib + Phenformin; first compound 0.02 µM) | relative viability (Vandetanib + Phenformin; first compound 0.06325 µM) | relative viability (Vandetanib + Phenformin; first compound 0.2 µM) | relative viability (Vandetanib + Phenformin; first compound 0.6325 µM) | relative viability (Vandetanib + Phenformin; first compound 2 µM) |
| --- | --- | --- | --- | --- | --- | --- | --- | --- | --- | --- | --- | --- | --- | --- | --- | --- | --- | --- |
| NCI-H2405 | 0.708 | 0.638 | 0.654 | 0.655 | 0.809 | 0.817 | 0.889 | 0.847 | 0.911 | 1.01 | 1.26 | 0.815 | 0.55 | 0.376 | 0.302 | 0.374 | 0.39 | 0.202 |
| NCI-H2087 | 0.163 | 0.159 | 0.222 | 0.2 | 0.15 | 1.03 | 0.954 | 1.07 | 1.1 | 0.915 | 1.36 | 1.02 | 0.986 | 0.415 | 0.45 | 0.457 | 0.447 | 0.44 |
| NCI-H2023 | 0.994 | 1 | 0.901 | 1.03 | 0.765 | 0.743 | 0.695 | 0.68 | 0.671 | 0.701 | 1.1 | 0.622 | 0.193 | 0.399 | 0.402 | 0.354 | 0.323 | 0.328 |
| NCI-H3122 | 0.0736 | 0.0973 | 0.553 | 0.0763 | 0.0863 | 1.02 | 0.992 | 1.04 | 1.07 | 0.999 | 0.369 | 0.213 | 0.18 | 0.348 | 0.374 | 0.327 | 0.303 | 0.333 |
| ChaGo-K-1 |  | 0.678 | 0.594 | 0.693 | 0.67 |  |  |  |  |  |  |  |  | 0.411 | 0.463 | 0.297 | 0.452 | 0.466 |
| NCI-H2347 | 0.811 | 0.355 | 0.381 | 0.488 | 0.363 | 0.899 | 0.854 | 0.954 | 0.953 | 0.966 | 1 | 0.903 | 0.955 | 0.336 |  | 0.256 | 0.403 | 0.493 |
| NCI-H460 | 0.0281 | 0.0289 | 0.031 | 0.0329 | 0.0322 |  | 1.15 | 1.02 | 1.17 | 0.502 | 0.903 | 1.29 | 0.441 | 0.498 | 0.48 | 0.544 | 0.49 | 0.48 |
| HCC-827 | 0.464 | 0.833 | 0.579 | 1.13 | 0.785 | 0.988 | 0.987 | 0.961 | 1.03 | 0.931 | 0.187 | 0.203 | 0.207 | 0.441 | 0.367 | 0.319 | 0.157 | 0.165 |
| HOP-62 | 0.749 | 0.948 | 0.861 | 0.973 | 0.898 | 1.13 | 1.19 | 0.919 | 1.21 | 0.932 | 0.882 | 1 | 1.08 | 0.689 | 0.664 | 0.487 | 0.728 | 0.703 |
| NCI-H1792 |  | 0.462 | 0.453 | 0.255 | 0.6 |  | 0.711 | 0.537 | 0.495 | 0.39 | 0.913 | 0.825 | 0.89 | 0.298 | 0.236 | 0.184 | 0.254 | 0.175 |
| HCC-15 | 0.478 | 0.255 | 0.237 | 0.354 | 0.27 | 0.842 | 0.911 | 0.926 | 0.888 | 0.882 | 0.914 | 0.893 | 0.808 | 0.476 | 0.429 | 0.468 | 0.449 | 0.447 |
| NCI-H1755 | 0.458 | 0.406 | 0.262 | 0.576 | 0.61 | 0.968 | 1.05 | 0.976 | 1.07 | 0.908 | 0.996 | 1.06 | 0.891 | 0.67 | 0.593 | 0.671 | 0.38 | 0.609 |
| NCI-H23 | 0.211 |  | 0.204 | 0.225 | 0.215 |  | 0.685 | 0.583 | 0.85 | 0.533 | 1.15 | 1.05 | 0.512 | 0.763 | 0.733 | 0.8 | 0.777 | 0.742 |
| BEN | 0.081 | 0.337 | 0.254 | 0.688 | 0.342 | 0.6 | 0.953 | 0.885 | 0.973 | 0.74 | 0.579 | 0.552 | 0.62 | 0.266 | 0.278 | 0.279 | 0.292 | 0.262 |
| NCI-H1651 | 0.752 | 0.647 | 1.02 | 1.09 | 0.705 | 0.695 | 0.846 | 1 | 1.18 | 0.921 | 0.998 | 0.834 | 0.563 | 0.304 | 0.299 | 0.325 | 0.353 | 0.311 |
| NCI-H2126 | 0.561 | 0.87 | 0.73 | 0.997 | 0.836 | 0.748 | 0.739 | 0.705 | 0.705 | 0.665 | 0.755 | 0.719 | 0.55 | 0.541 | 0.5 | 0.522 | 0.495 | 0.49 |
| EKVX | 0.953 | 0.837 | 0.868 | 0.673 | 0.842 | 0.83 | 1.17 | 1.06 | 1.02 | 0.829 | 0.199 | 0.189 | 0.155 | 0.245 | 0.234 | 0.228 | 0.227 | 0.219 |
| NCI-H1650 | 0.171 | 0.191 | 0.176 | 0.204 | 0.2 |  |  |  |  |  | 0.958 | 0.684 | 0.347 | 0.409 | 0.332 | 0.251 | 0.329 | 0.321 |
| NCI-H1703 |  |  |  |  |  | 0.547 | 0.711 |  | 0.718 | 0.676 | 1.41 | 0.994 | 0.392 |  |  |  |  |  |
